Reference: patent publication US9981944B2, “GDF-8 inhibitors” (Rigel Pharmaceuticals, Inc., priority 2015, dated 2018)

How the values were obtained:
HIS-TGFβR2 WT = HIS-TGFβR2 WT (Homo sapiens (Human), UniProt P37173); assay: HTRF probe displacement assay, HIS-TGFβR2 WT; assay type: binding; settings: 1 nM HIS-TGFβR2 WT, 1 hour at room temperature, read-out: TGFBR2WT IC50
Experimental: (§1) Compounds were dissolved at 10 mM in dimethylsulfoxide (DMSO) and evaluated at eleven concentrations. IC50 values were derived by non-linear regression analysis.

HIS-TGFβR1 T204D = HIS-TGFβR1 T204D (Homo sapiens (Human), UniProt P36897, T204D); assay: HTRF probe displacement assay, HIS-TGFβR1 T204D; assay type: binding; settings: 1 nM HIS-TGFβR1 T204D, 1 hour at room temperature, read-out: TGFBR1T204D IC50
Chain of HIS-TGFβR1 T204D (P36897 34-503 T204D): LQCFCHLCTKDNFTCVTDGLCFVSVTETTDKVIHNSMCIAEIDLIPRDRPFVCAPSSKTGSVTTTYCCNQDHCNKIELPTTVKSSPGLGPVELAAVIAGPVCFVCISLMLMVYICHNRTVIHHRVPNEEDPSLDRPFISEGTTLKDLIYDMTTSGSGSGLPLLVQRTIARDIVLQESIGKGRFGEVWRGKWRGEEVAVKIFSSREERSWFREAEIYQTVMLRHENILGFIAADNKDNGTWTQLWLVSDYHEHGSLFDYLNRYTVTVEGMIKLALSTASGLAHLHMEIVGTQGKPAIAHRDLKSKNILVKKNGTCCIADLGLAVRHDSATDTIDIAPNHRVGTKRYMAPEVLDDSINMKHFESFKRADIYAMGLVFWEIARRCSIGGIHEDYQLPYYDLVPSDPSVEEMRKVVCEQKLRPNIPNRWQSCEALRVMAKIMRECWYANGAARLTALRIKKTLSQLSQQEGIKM
Experimental: as §1

Chain of HIS-TGFβR2 WT (P37173 23-567): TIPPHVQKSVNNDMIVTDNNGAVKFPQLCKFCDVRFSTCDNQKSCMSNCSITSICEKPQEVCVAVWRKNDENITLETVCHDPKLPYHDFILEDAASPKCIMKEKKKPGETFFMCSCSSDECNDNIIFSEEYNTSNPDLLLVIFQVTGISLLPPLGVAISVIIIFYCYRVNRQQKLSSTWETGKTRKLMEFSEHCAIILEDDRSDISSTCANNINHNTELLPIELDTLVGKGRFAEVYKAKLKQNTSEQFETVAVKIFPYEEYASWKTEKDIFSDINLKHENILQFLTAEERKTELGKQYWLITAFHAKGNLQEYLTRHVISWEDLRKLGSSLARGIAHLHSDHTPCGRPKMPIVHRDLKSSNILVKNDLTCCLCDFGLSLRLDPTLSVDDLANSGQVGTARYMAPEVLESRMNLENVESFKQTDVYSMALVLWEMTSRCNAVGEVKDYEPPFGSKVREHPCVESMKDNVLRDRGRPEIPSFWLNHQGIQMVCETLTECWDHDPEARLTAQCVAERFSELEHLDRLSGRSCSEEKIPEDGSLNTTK

Row | Compound | IC50 (HIS-TGFβR2 WT) [nM] | IC50 (HIS-TGFβR1 T204D) [nM]
1 | N#Cc1cnc2ccc(-c3cccnc3-c3cccc(C(F)F)n3)nn12 [Compound 49, 6-(6′-(difluoromethyl)-[2,2′-bipyridin]-3-yl)imidazo[1,2-b]pyridazine-3-carbonitrile] | > 15000 | 61
2 | COc1cccc(-c2ncccc2-c2ccc3ncc(C#N)n3n2)n1 [Compound 50, 6-(6′-methoxy-[2,2′-bipyridin]-3-yl)imidazo[1,2-b]pyridazine-3-carbonitrile] | > 15000 | 43
3 | COc1cccc(-c2ncccc2-c2ccc3ncc(C(N)=O)n3n2)n1 [Compound 51, 6-(6′-methoxy-[2,2′-bipyridin]-3-yl)imidazo[1,2-b]pyridazine-3-carboxamide] | > 15000 | 21
4 | NC(=O)c1cnc2ccc(-c3cccnc3-c3cccc(C(F)F)n3)nn12 [Compound 52, 6-(6′-(difluoromethyl)-[2,2′-bipyridin]-3-yl)imidazo[1,2-b]pyridazine-3-carboxamide] | > 15000 | 30
5 | N#Cc1cnc2ccc(-c3cccnc3-c3ccc(F)cn3)nn12 [Compound 53, 6-(5′-fluoro-[2,2′-bipyridin]-3-yl)imidazo[1,2-b]pyridazine-3-carbonitrile] | > 15000 | 605
6 | NC(=O)c1cnc2ccc(-c3cccnc3-c3ccc(F)cn3)nn12 [Compound 54, 6-(5′-fluoro-[2,2′-bipyridin]-3-yl)imidazo[1,2-b]pyridazine-3-carboxamide] | > 15000 | 254
7 | Cc1ccc(-c2ncccc2-c2ccc3ncc(C#N)n3n2)nc1 [Compound 55, 6-(5′-methyl-[2,2′-bipyridin]-3-yl)imidazo[1,2-b]pyridazine-3-carbonitrile] | > 15000 | 5230
8 | Cc1ccc(-c2ncccc2-c2ccc3ncc(C(N)=O)n3n2)nc1 [Compound 56, 6-(5′-methyl-[2,2′-bipyridin]-3-yl)imidazo[1,2-b]pyridazine-3-carboxamide] | > 15000 | 5300
9 | Cc1cccc(-c2ncccc2-c2ccc3ncc(C#N)n3n2)n1 [Compound 57, 6-(6′-methyl-[2, 2′-bipyridin]-3-yl) imidazo[1,2-b]pyridazine-3-carbonitrile] | > 15000 | 35
10 | Cc1cccc(-c2ncccc2-c2ccc3ncc(C(N)=O)n3n2)n1 [Compound 58, 6-(6′-methyl-[2,2′-bipyridin]-3-yl)imidazo[1,2-b]pyridazine-3-carboxamide] | > 15000 | 19
11 | N#Cc1cnc2ccc(-c3cccnc3-c3cc(F)ccn3)nn12 [Compound 59, 6-(4′-fluoro-[2,2′-bipyridin]-3-yl)imidazo[1,2-b]pyridazine-3-carbonitrile] | > 15000 | 918
12 | NC(=O)c1cnc2ccc(-c3cccnc3-c3cc(F)ccn3)nn12 [Compound 60, 6-(4′-fluoro-[2,2′-bipyridin]-3-yl)imidazo[1,2-b]pyridazine-3-carboxamide] | > 15000 | 161
13 | Cc1nc(-c2ncccc2-c2ccc3ncc(C#N)n3n2)ccc1F [Compound 61, 6-(5′-fluoro-6′-methyl-[2,2′-bipyridin]-3-yl)imidazo[1,2-b]pyridazine-3-carbonitrile] | > 15000 | 32
14 | CC(C)c1cccc(-c2ncccc2-c2ccc3ncc(C#N)n3n2)n1 [Compound 63, 6-(6′-isopropyl-[2,2′-bipyridin]-3-yl)imidazo[1,2-b]pyridazine-3-carbonitrile] | > 15000 | 1950
15 | CC(C)c1cccc(-c2ncccc2-c2ccc3ncc(C(N)=O)n3n2)n1 [Compound 64, 6-(6′-isopropyl-[2,2′-bipyridin]-3-yl)imidazo[1,2-b]pyridazine-3-carboxamide] | > 15000 | 563
16 | N#Cc1cnc2ccc(-c3cccnc3-c3cccc(F)n3)nn12 [Compound 65, 6-(6′-fluoro-[2,2′-bipyridin]-3-yl)imidazo[1,2-b]pyridazine-3-carbonitrile] | > 15000 | 397

The remaining lines, values ahead:

Row | IC50 (HIS-TGFβR2 WT) [nM] | IC50 (HIS-TGFβR1 T204D) [nM] | Compound
17 | > 15000 | 37 | Cc1cccc(-c2ncccc2-c2ccc3ncc(NC(=O)C(F)(F)F)n3c2)n1 [Compound 66, 2,2,2-trifluoro-N-(6-(6′-methyl-[2,2′-bipyridin]-3-yl)imidazo[1,2-a]pyridin-3-yl)acetamide]
18 | > 15000 | 4 | Cc1cccc(-c2ncccc2-c2ccc3ncc(C(=O)NCC(F)F)n3c2)n1 [Compound 68, N-(2,2-difluoroethyl)-6-(6′-methyl-[2,2′-bipyridin]-3-yl)imidazo[1,2-a]pyridine-3-carboxamide]
19 | > 15000 | 7 | Cc1cccc(-c2ncccc2-c2ccc3ncc(C(=O)NCC(F)(F)F)n3c2)n1 [Compound 69, 6-(6′-methyl-[2,2′-bipyridin]-3-yl)-N-(2,2,2-trifluoroethyl)imidazo[1,2-a]pyridine-3-carboxamide]
20 | > 15000 | 4 | COCCNC(=O)c1cnc2ccc(-c3cccnc3-c3cccc(C)n3)cn12 [Compound 70, N-(2-methoxyethyl)-6-(6′-methyl-[2,2′-bipyridin]-3-yl)imidazo[1,2-a]pyridine-3-carboxamide]
21 | > 15000 | 26 | Cc1cccc(-c2ncccc2-c2ccc3ncc(C(=O)O)n3n2)n1 [Compound 73, 6-(6′-methyl-[2,2′-bipyridin]-3-yl)imidazo[1,2-b]pyridazine-3-carboxylic acid]
22 | > 15000 | 108 | Cc1cccc(-c2ncccc2-c2ccc3ncc(C(=O)NC4COC4)n3n2)n1 [Compound 74, 6-(6′-methyl-[2,2′-bipyridin]-3-yl)-N-(oxetan-3-yl)imidazo[1,2-b]pyridazine-3-carboxamide]
23 | > 15000 | 25 | Cc1cccc(-c2ncccc2-c2ccc3ncc(C(=O)NC4CC4)n3n2)n1 [Compound 75, N-cyclopropyl-6-(6′-methyl-[2,2′-bipyridin]-3-yl)imidazo[1,2-b]pyridazine-3-carboxamide]
24 | > 15000 | 1 | CC(=O)Nc1cn2cc(-c3cccnc3-c3cccc(C)n3)ccc2n1 [Compound 76, N-(6-(6′-methyl-[2,2′-bipyridin]-3-yl)imidazo[1,2-a]pyridin-2-yl)acetamide]
25 | > 15000 | 4 | CC(=O)Nc1cn2cc(-c3cccnc3-c3ccc(F)c(C)n3)ccc2n1 [Compound 77, N-(6-(5′-fluoro-6′-methyl-[2,2′-bipyridin]-3-yl)imidazo[1,2-a]pyridin-2-yl)acetamide]
26 | > 15000 | 15000 | Cc1nc(-c2ncccc2-c2ccc3nc(C(N)=O)cn3c2)ccc1F [Compound 78, 6-(5′-fluoro-6′-methyl-[2,2′-bipyridin]-3-yl)imidazo[1,2-a]pyridine-2-carboxamide]
27 | > 15000 | 15000 | NC(=O)c1cn2cc(-c3cccnc3-c3cccc(C(F)(F)F)n3)ccc2n1 [Compound 79, 6-(6′-(trifluoromethyl)-[2,2′-bipyridin]-3-yl)imidazo[1,2-a]pyridine-2-carboxamide]
28 | > 15000 | 1020 | Cc1cccc(-c2ncccc2-c2ccc3nc(C(N)=O)cn3c2)n1 [Compound 80, 6-(6′-methyl-[2,2′-bipyridin]-3-yl)imidazo[1,2-a]pyridine-2-carboxamide]
29 | > 15000 | 16 | Cc1cccc(-c2ncc(F)cc2-c2ccc3ncc(C#N)n3c2)n1 [Compound 81, 6-(5-fluoro-6′-methyl-[2,2′-bipyridin]-3-yl)imidazo[1,2-a]pyridine-3-carbonitrile]
30 | > 15000 | 22 | N#Cc1cnc2ccc(-c3cc(F)cnc3-c3cccc(C(F)F)n3)cn12 [Compound 83, 6-(6′-(difluoromethyl)-5-fluoro-[2,2′-bipyridin]-3-yl)imidazo[1,2-a]pyridine-3-carbonitrile]
31 | > 15000 | 1 | NC(=O)c1cnc2ccc(-c3cc(F)cnc3-c3cccc(C(F)F)n3)cn12 [Compound 84, 6-(6′-(difluoromethyl)-5-fluoro-[2,2′-bipyridin]-3-yl)imidazo[1,2-a]pyridine-3-carboxamide]
32 | > 15000 | 187 | Cc1cccc(-c2nc(C)ccc2-c2ccc3ncc(C#N)n3c2)n1 [Compound 86, 6-(6,6′-dimethyl-[2,2′-bipyridin]-3-yl)imidazo[1,2-a]pyridine-3-carbonitrile]
33 | > 15000 | 15 | Cc1cccc(-c2nc(C)ccc2-c2ccc3ncc(C(N)=O)n3c2)n1 [Compound 87]
34 | > 15000 | 13 | Cc1ccc(-c2ccc3ncc(C(N)=O)n3c2)c(-c2cccc(C(F)F)n2)n1 [Compound 88, 6-(6′-(difluoromethyl)-6-methyl-[2,2′-bipyridin]-3-yl)imidazo[1,2-a]pyridine-3-carboxamide]
35 | > 15000 | 3360 | Cc1cccc(-c2nc(C(F)(F)F)ccc2-c2ccc3ncc(C#N)n3c2)n1 [Compound 89, 6-(6′-methyl-6-(trifluoromethyl)-[2,2′-bipyridin]-3-yl)imidazo[1,2-a]pyridine-3-carbonitrile]
36 | > 15000 | 84 | Cc1cccc(-c2nc(C(F)(F)F)ccc2-c2ccc3ncc(C(N)=O)n3c2)n1 [Compound 90, 6-(6′-methyl-6-(trifluoromethyl)-[2,2′-bipyridin]-3-yl)imidazo[1,2-a]pyridine-3-carboxamide]
37 | > 15000 | 652 | COC(=O)c1ccnc(-c2cccc(C)n2)c1-c1ccc2ncc(C#N)n2c1 [Compound 91, methyl 3-(3-cyanoimidazo[1,2-a]pyridin-6-yl)-6′-methyl-[2,2′-bipyridine]-4-carboxylate]
38 | > 15000 | 487 | Cc1cccc(-c2nccc(CO)c2-c2ccc3ncc(C#N)n3c2)n1 [Compound 92, 6-(4-(hydroxymethyl)-6′-methyl-[2,2′-bipyridin]-3-yl)imidazo[1,2-a]pyridine-3-carbonitrile]
